For this assay, the system named is A549 xenografts. Nature of the assay: A549 xenograft study. The conditions noted are these: P8-A1 q4dx4 i.v. 0.4 mg/kg; Lipo4*-P8-A1 q4dx11 i.v. 0.4 mg/kg; cisplatin q4dx11 i.p. 4.0 mg/kg; n=8. In kind it is in vivo, mice. Here is the method:
FIGS. 10A, 10B, 10C and 10D illustrate evaluation of P8-A1 and its liposomal formulation, Lipo4-P8-A1, in a A549 xenograft model in mice. FIGS. 10 A-B illustrate tumor volumes and mouse weights monitored for Lipo4-P8-A1 and control, administered q4dx4, i.v. @ 0.4 mg/kg, n=10. Tumor growth inhibition is 65% on day 41, P<0.05. Mouse weight loss is 22% on day 41, potentially reversible. No other toxicity symptoms noted. FIGS. 10 C-D illustrate tumor volumes and mouse weights monitored for P8-A1 (q4dx4, i.v. @ 0.4 mg/kg), Lipo4*-P8-A1, (q4dx11, i.v. @ 0.4 mg/kg), cisplatin (q4dx11, i.p. @ 4.0 mg/kg), and control (q4dx11, i.v.). A total of 8 mice per group were treated (n=8). See text for discussion. […]
A549 Xenograft study. […] Animal weights and tumor volumes were measured and recorded throughout the entire study after the first dose was administered. Tumor volumes were determined using the formula: V (mm^3)=d^2×D/2, where d and D are the shortest and longest dimension of the tumor, respectively, and are reported as the sum of both tumors for each test animal. […] The concentration of Pt in selected tissues was determined by quadrupole inductively-coupled mass spectrometry (ICP-MS) on a Thermo ICP-MS instrument at the Analytic Chemistry Service facility of Research Triangle Institute, Research Triangle Park, N.C. […]

Take `N.N.[Cl][Pt][Cl]` [Cisplatin, cisplatin]: the “antitumor efficacy, growth inhibition (Study B)” value is recorded as “does not show efficacy”.
